Our source for the EC50 values is patent US10351576B2, “Fused tricyclic pyrazole derivatives useful for farnesoid X receptors” (NOVARTIS AG, priority 2015, dated 2019).

This assay deals with T1, human Farnesoid X Receptor (FXR) ligand binding domain (GST-FXR LBD) (Homo sapiens, UniProt Q96RI1).
T1 construct: purchased Invitrogen
T1 sequence (Q96RI1 193-472 isoform Q96RI1-2): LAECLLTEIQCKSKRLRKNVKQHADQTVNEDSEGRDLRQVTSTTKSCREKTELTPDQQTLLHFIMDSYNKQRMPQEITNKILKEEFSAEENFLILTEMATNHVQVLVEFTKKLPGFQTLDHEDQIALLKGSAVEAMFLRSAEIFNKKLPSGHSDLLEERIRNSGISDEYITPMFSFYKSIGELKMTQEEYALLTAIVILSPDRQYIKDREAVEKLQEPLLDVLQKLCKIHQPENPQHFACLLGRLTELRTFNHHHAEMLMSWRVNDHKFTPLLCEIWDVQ
Kind of assay: Human GST-FXR LBD co-activator interaction assay (FXR HTRF assay). It is filed as biochemical. The conditions noted are these: ligand-dependent interaction of GST-FXR LBD with biotin-labeled SRC-1 peptide, response relative to GW4064, read-out: FXR coactivator interaction assay (HTRF). From the text: Human GST-FXR LBD Co-Activator Interaction Assay
The FXR HTRF assay is a biochemical assay measuring the interaction between FXR and a coactivator protein (SRC1). The ligand-induced interaction with a coactivator protein is a critical step in transcriptional activation by FXR. Thus, this is an assay designed to measure FXR agonist activity of the test compounds.
Recombinant human Farnesoid X Receptor (FXR) ligand binding domain (amino acids 193-472) fused to glutathione S-transferase (GST) purified protein (GST-FXR LBD) was purchased (Invitrogen). The ligand-dependent interaction between GST-FXR LBD and a peptide derived from Steroid Receptor Coactivator-1 (SRC-1) was monitored by Fluorescence Resonance Energy Transfer (FRET). […] Test compounds (in DMSO solution) and detection reagents (anti-GST-Cryptate labeled antibody and Streptavidin-XL665 conjugate; CisBio) were added in assay buffer containing 50 mM KF. Plates are incubated at room temperature in the dark for 2.5 hrs before reading on an Envision (PerkinElmer) at 665 nm and 590 nm. The HTRF assay results were calculated from the 665 nm/590 nm ratio (ratio=(A665 nm/A590 nm)×10^4) and expressed in Delta F %=(Ratiosample−Rationegative)/Rationegative×100.
A negative control (without Streptavidin-XL665) was run with each assay and represented the background fluorescence. A reference FXR agonist, (E)-3-(2-chloro-4-((3-(2,6-dichlorophenyl)-5-isopropylisoxazol-4-yl)methoxy)styryl)benzoic acid (Compound GW4064), was included in each experiment as positive control. The efficacy of each test compound was compared to that of GW4064. At each concentration, the relative activity of the test compound was expressed as Response %=(Rsample−RDMSO)/(Rpositive−RDMSO), where Rsample is the HTRF response (expressed in Delta F %) for the test compound, Rpositive is the maximal response for GW4064 at saturating concentrations, and RDMSO is the response for DMSO control. The EC50 values were calculated using GraphPad Prism (GraphPad Software) using non-linear regression curve fit (log(agonist) vs. response—variable slope (four parameters)).
A general note: In TR-FRET formats the signal depends on donor and acceptor labels being close together.
For the compound `Cn1nc(C(=O)N(CC(=O)NCC(C)(C)O)Cc2ccccc2F)c2c1-c1cc(Cl)ccc1OC2` [Compound 46, 2-(1-{8-chloro-1-methyl-1H,4H-chromeno[4,3-c]pyrazol-3-yl}-N-[(2-fluorophenyl)methyl]formamido)-N-(2-hydroxy-2-methylpropyl)acetamide], the EC50 came to 19 nM.
With `Cn1nc(C(=O)N(CC(=O)NCC2(O)CC2)Cc2ccccc2F)c2c1-c1cc(Cl)ccc1OC2` [Compound 48, 2-(1-{8-chloro-1-methyl-1H,4H-chromeno[4,3-c]pyrazol-3-yl}-N-[(2-fluorophenyl)methyl]formamido)-N-[(1-hydroxycyclopropyl)methyl]acetamide], the EC50 came out at 75 nM.
The result for `Cn1nc(C(=O)N(Cc2ccccc2)Cc2ccc(C(N)=O)cc2)c2c1-c1cc(Cl)ccc1OC2` [Compound 53, N-benzyl-N-(4-carbamoylbenzyl)-8-chloro-1-methyl-1,4-dihydrochromeno[4,3-c]pyrazole-3-carboxamide] reads 442 nM; that for `CNS(=O)(=O)c1ccc(CN(Cc2ccccc2)C(=O)c2nn(C)c3c2COc2ccc(Cl)cc2-3)cc1` [Compound 54, N-benzyl-8-chloro-1-methyl-N-{[4-(methylsulfamoyl)phenyl]methyl}-1H,4H-chromeno[4,3-c]pyrazole-3-carboxamide], 266 nM; that for `Cn1nc(C(=O)N(Cc2ccccc2)Cc2ccc(S(C)(=O)=O)cc2)c2c1-c1cc(Cl)ccc1OC2` [Compound 56, N-benzyl-8-chloro-N-[(4-methanesulfonylphenyl)methyl]-1-methyl-1H,4H-chromeno[4,3-c]pyrazole-3-carboxamide], 605 nM.
For the compound `Cn1nc(C(=O)N(Cc2ccccc2)Cc2cccc(F)c2)c2c1-c1cc(Cl)ccc1OC2` [Compound 57, N-benzyl-8-chloro-N-[(3-fluorophenyl)methyl]-1-methyl-1H,4H-chromeno[4,3-c]pyrazole-3-carboxamide], the EC50 worked out at 509 nM.
On to `Cn1nc(C(=O)N(CCNC(=O)NCC2CC2)Cc2ccccc2F)c2c1-c1cc(Cl)ccc1OC2` [Compound 60, 8-chloro-N-(2-(3-(cyclopropylmethyl)ureido)ethyl)-N-(2-fluorobenzyl)-1-methyl-1,4-dihydrochromeno[4,3-c]pyrazole-3-carboxamide], for which the EC50 turned out to be 1810 nM.
In the case of `CC(C)NC(=O)NCCN(Cc1ccccc1F)C(=O)c1nn(C)c2c1COc1ccc(Cl)cc1-2` [Compound 61, 8-chloro-N-[(2-fluorophenyl)methyl]-1-methyl-N-(2-{[(propan-2-yl)carbamoyl]amino}ethyl)-1H,4H-chromeno[4,3-c]pyrazole-3-carboxamide] it was 1080 nM; in that of `CC(C)C(=O)NCCN(Cc1cccc(F)c1)C(=O)c1nn(C)c2c1COc1ccc(Br)cc1-2` [Compound 62, 8-bromo-N-(3-fluorobenzyl)-N-(2-isobutyramidoethyl)-1-methyl-1,4-dihydrochromeno[4,3-c]pyrazole-3-carboxamide], 18 nM.
Turning to `CC(C)S(=O)(=O)NCCN(Cc1ccccc1F)C(=O)c1nn(C)c2c1COc1ccc(Cl)cc1-2` [Compound 63, 8-chloro-N-[(2-fluorophenyl)methyl]-1-methyl-N-[2-(propane-2-sulfonamido)ethyl]-1H,4H-chromeno[4,3-c]pyrazole-3-carboxamide], the EC50 came to 644 nM.
Take `CC(C)S(=O)(=O)NCCN(Cc1ccccc1)C(=O)c1nn(C)c2c1COc1ccc(Br)cc1-2` [Compound 64, N-benzyl-8-bromo-1-methyl-N-[2-(propane-2-sulfonamido)ethyl]-1H,4H-chromeno[4,3-c]pyrazole-3-carboxamide]: the EC50 stood at 695 nM.
As to `Cn1nc(C(=O)N(CC(=O)NCC2CC2)Cc2ccccc2F)c2c1-c1cc(F)ccc1OC2` [Compound 65, N-(2-((cyclopropylmethyl)amino)-2-oxoethyl)-8-fluoro-N-(2-fluorobenzyl)-1-methyl-1,4-dihydrochromeno[4,3-c]pyrazole-3-carboxamide], the EC50 came out at 12 nM.
Take `CC(C)C(=O)NCCN(Cc1ccccc1F)C(=O)c1nn(C)c2c1COc1ccc(Cl)cc1-2` [Compound 66, N-[2-(1-{8-chloro-1-methyl-1H,4H-chromeno[4,3-c]pyrazol-3-yl}-N-[(2-fluorophenyl)methyl]formamido)ethyl]-2-methylpropanamide]: the EC50 is 10 nM.
In the case of `CC(C)C(=O)NCCN(Cc1ccccc1)C(=O)c1nn(C)c2c1COc1ccc(Br)cc1-2` [Compound 68, N-[2-(N-benzyl-1-{8-bromo-1-methyl-1H,4H-chromeno[4,3-c]pyrazol-3-yl}formamido)ethyl]-2-methylpropanamide] it was 22 nM; in that of `CC(C)C(=O)NCCN(Cc1ccccc1)C(=O)c1nn(C)c2c1COc1ccc(Cl)cc1-2` [Compound 73, N-[2-(N-benzyl-1-{8-chloro-1-methyl-1H,4H-chromeno[4,3-c]pyrazol-3-yl}formamido)ethyl]-2-methylpropanamide], 50 nM; in that of `Cn1nc(C(=O)N(CC(=O)NCC2CC2)CC2CCCCC2)c2c1-c1cc(Cl)ccc1OC2` [Compound 74, 2-(1-{8-chloro-1-methyl-1H,4H-chromeno[4,3-c]pyrazol-3-yl}-N-(cyclohexylmethyl)formamido)-N-(cyclopropylmethyl)acetamide], 96 nM.
In the case of `Cn1nc(C(=O)N(CC(=O)NCC2CC2)CC2CCCC2)c2c1-c1cc(Cl)ccc1OC2` [Compound 75, 2-(1-{8-chloro-1-methyl-1H,4H-chromeno[4,3-c]pyrazol-3-yl}-N-(cyclopentylmethyl)formamido)-N-(cyclopropylmethyl)acetamide] it was 87 nM; in that of `Cn1nc(C(=O)N(CCNc2nccs2)Cc2cccc(F)c2)c2c1-c1cc(Cl)ccc1OC2` [Compound 76, 8-chloro-N-[(3-fluorophenyl)methyl]-1-methyl-N-{2-[(1,3-thiazol-2-yl)amino]ethyl}-1H,4H-chromeno[4,3-c]pyrazole-3-carboxamide], 259 nM.
With `Cn1nc(C(=O)N(CC(=O)NCC2CC2)Cc2ccccc2F)c2c1-c1cc(Br)ccc1OC2(C)C` [Compound 78, 2-(1-{8-bromo-1,4,4-trimethyl-1H,4H-chromeno[4,3-c]pyrazol-3-yl}-N-[(2-fluorophenyl)methyl]formamido)-N-(cyclopropylmethyl)acetamide], the EC50 is 2230 nM.
In the case of `C[C@@H](C(=O)NCC1CC1)N(Cc1ccccc1F)C(=O)c1nn(C)c2c1COc1ccc(Cl)cc1-2` [Compound 80, (2S)-2-(1-{8-chloro-1-methyl-1H,4H-chromeno[4,3-c]pyrazol-3-yl}-N-[(2-fluorophenyl)methyl]formamido)-N-(cyclopropylmethyl)propanamide] it was 61 nM; in that of `Cn1nc(C(=O)N(CC(=O)NCC2CC2)Cc2nccs2)c2c1-c1cc(Cl)ccc1OC2` [Compound 81, 2-(1-{8-chloro-1-methyl-1H,4H-chromeno[4,3-c]pyrazol-3-yl}-N-(1,3-thiazol-2-ylmethyl)formamido)-N-(cyclopropylmethyl)acetamide], 48 nM; in that of `Cn1nc(C(=O)N(CC(=O)NCC2CCOCC2)Cc2ccccc2F)c2c1-c1cc(Cl)ccc1OC2` [Compound 82, 2-(1-{8-chloro-1-methyl-1H,4H-chromeno[4,3-c]pyrazol-3-yl}-N-[(2-fluorophenyl)methyl]formamido)-N-(oxan-4-ylmethyl)acetamide], 178 nM.
